# Like-named read-outs stand apart in the source and are kept apart here.
# Experiments:
# Test in all cases: Test E pre-/postemergence plant response
# Type in all cases: in vivo
# [1] = tested on: spring wheat (Triticum aestivum); details: scale 0 to 100, read-out: Plant response rating, Wheat, Spring; for plant injury at 16 g/ha: 16 g ai/ha; for plant injury at 62 g/ha: 62 g ai/ha; for plant injury at 125 g/ha: 125 g ai/ha
# Method in brief: (§1)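 Pre-emergence: seeds sown in silt loam soil and sprayed with test chemicals in a non-phytotoxic solvent/surfactant mix. Post-emergence: plants at 2–18 cm (1- to 4-leaf stage) in peat/vermiculite medium treated with the same formulation. Visual rating versus controls after 7–21 days, 0 (no effect) to 100 (complete control).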
# [2] = tested on: spring barley (Hordeum vulgare); details: for plant injury at 16 g/ha: 16 g ai/ha; for plant injury at 31 g/ha: 31 g ai/ha; for plant injury at 62 g/ha: 62 g ai/ha; for plant injury at 125 g/ha: 125 g ai/ha
# Method in brief: as §1
# [3] = tested on: canarygrass (Phalaris minor); details: scale 0 to 100, read-out: Plant response rating, Canarygrass; for pest or weed control at 16 g/ha: 16 g ai/ha; for pest or weed control at 31 g/ha: 31 g ai/ha; for pest or weed control at 62 g/ha: 62 g ai/ha; for pest or weed control at 125 g/ha: 125 g ai/ha
# Method in brief: as §1
# [4] = tested on: wild radish (Raphanus raphanistrum); details: scale 0 to 100, read-out: Plant response rating, Radish, Wild; for pest or weed control at 16 g/ha: 16 g ai/ha; for pest or weed control at 31 g/ha: 31 g ai/ha; for pest or weed control at 62 g/ha: 62 g ai/ha; for pest or weed control at 125 g/ha: 125 g ai/ha
# Method in brief: as §1
# [5] = tested on: Italian ryegrass (Lolium multiflorum); details: scale 0 to 100, read-out: Plant response rating, Ryegrass, Italian; for pest or weed control at 16 g/ha: 16 g ai/ha; for pest or weed control at 31 g/ha: 31 g ai/ha; for pest or weed control at 62 g/ha: 62 g ai/ha; for pest or weed control at 125 g/ha: 125 g ai/ha
# Method in brief: as §1
# [6] = tested on: windgrass (Apera spica-venti); details: scale 0 to 100, read-out: Plant response rating, Windgrass; for pest or weed control at 16 g/ha: 16 g ai/ha; for pest or weed control at 62 g/ha: 62 g ai/ha; for pest or weed control at 125 g/ha: 125 g ai/ha
# Method in brief: as §1
# [7] = tested on: pigweed (Amaranthus retroflexus); details: scale 0 to 100, read-out: Plant response rating, Pigweed; for pest or weed control at 16 g/ha: 16 g ai/ha; for pest or weed control at 31 g/ha: 31 g ai/ha; for pest or weed control at 62 g/ha: 62 g ai/ha; for pest or weed control at 125 g/ha: 125 g ai/ha
# Method in brief: as §1
# [8] = tested on: field poppy (Papaver rhoeas); details: scale 0 to 100, read-out: Plant response rating, Field Poppy; for pest or weed control at 16 g/ha: 16 g ai/ha; for pest or weed control at 31 g/ha: 31 g ai/ha; for pest or weed control at 62 g/ha: 62 g ai/ha; for pest or weed control at 125 g/ha: 125 g ai/ha
# Method in brief: as §1
# [9] = tested on: chickweed (common chickweed, Stellaria media); details: scale 0 to 100, read-out: Plant response rating, Chickweed; for pest or weed control at 16 g/ha: 16 g ai/ha; for pest or weed control at 31 g/ha: 31 g ai/ha; for pest or weed control at 62 g/ha: 62 g ai/ha; for pest or weed control at 125 g/ha: 125 g ai/ha
# Method in brief: as §1
# [10] = tested on: winter wheat (Triticum aestivum); details: scale 0 to 100, read-out: Plant response rating, Wheat, Winter; for plant injury at 16 g/ha: 16 g ai/ha; for plant injury at 62 g/ha: 62 g ai/ha; for plant injury at 125 g/ha: 125 g ai/ha
# Method in brief: as §1
# kochia (Kochia scoparia) = details: Bassia scoparia, scale 0 to 100, read-out: Plant response rating, Kochia; for pest or weed control at 16 g/ha: 16 g ai/ha; for pest or weed control at 31 g/ha: 31 g ai/ha; for pest or weed control at 62 g/ha: 62 g ai/ha; for pest or weed control at 125 g/ha: 125 g ai/ha
# Method in brief: as §1
# [11] = post-emergence, 31 g ai/ha, Postemergence
# [12] = post-emergence, Postemergence, scale 0 to 100, read-out: Plant response rating, Barley, Spring
# [13] = pre-emergence, Preemergence, scale 0 to 100, read-out: Plant response rating, Barley, Spring
smiles,measurement,setting,value
"FC(F)c1cc(-c2ccccc2Oc2ncc(Cl)cn2)on1 [Compound 53, 5-chloro-2-[2-[3-(difluoromethyl)-5-isoxazolyl]phenoxy]pyrimidine]",plant injury at 16 g/ha,"[1]; post-emergence, Postemergence",10%
same,plant injury at 31 g/ha,[1]; [11],10%
same,plant injury at 62 g/ha,"[1]; post-emergence, Postemergence",20%
same,plant injury at 125 g/ha,"[1]; post-emergence, Postemergence",35%
same,plant injury at 16 g/ha,"[1]; pre-emergence, Preemergence",5%
same,plant injury at 62 g/ha,"[1]; pre-emergence, Preemergence",10%
same,plant injury at 125 g/ha,"[1]; pre-emergence, Preemergence",10%
same,plant injury at 16 g/ha,[2]; [12],5%
same,plant injury at 31 g/ha,[2]; [12],5%
same,plant injury at 62 g/ha,[2]; [12],10%
same,plant injury at 125 g/ha,"[2]; post-emergence, Postemergence, scale 0 to 100 (0 no effect, 100 complete control), read-out: Plant response rating, Barley, Spring",10%
same,plant injury at 16 g/ha,[2]; [13],35%
same,plant injury at 31 g/ha,[2]; [13],35%
same,plant injury at 62 g/ha,[2]; [13],35%
same,plant injury at 125 g/ha,[2]; [13],35%
same,pest or weed control at 16 g/ha,"[3]; post-emergence, Postemergence",5%
same,pest or weed control at 31 g/ha,"[3]; post-emergence, Postemergence",10%
same,pest or weed control at 62 g/ha,"[3]; post-emergence, Postemergence",25%
same,pest or weed control at 125 g/ha,"[3]; post-emergence, Postemergence",40%
same,pest or weed control at 16 g/ha,"[3]; pre-emergence, Preemergence",10%
same,pest or weed control at 31 g/ha,"[3]; pre-emergence, Preemergence",20%
same,pest or weed control at 62 g/ha,"[3]; pre-emergence, Preemergence",65%
same,pest or weed control at 125 g/ha,"[3]; pre-emergence, Preemergence",95%
same,pest or weed control at 16 g/ha,"[4]; post-emergence, Postemergence",60%
same,pest or weed control at 31 g/ha,"[4]; post-emergence, Postemergence",60%
same,pest or weed control at 62 g/ha,"[4]; post-emergence, Postemergence",90%
same,pest or weed control at 125 g/ha,"[4]; post-emergence, Postemergence",90%
same,pest or weed control at 16 g/ha,"[4]; pre-emergence, Preemergence",50%
same,pest or weed control at 31 g/ha,"[4]; pre-emergence, Preemergence",70%
same,pest or weed control at 62 g/ha,"[4]; pre-emergence, Preemergence",100%
same,pest or weed control at 125 g/ha,"[4]; pre-emergence, Preemergence",90%
same,pest or weed control at 16 g/ha,"[5]; post-emergence, Postemergence",0%
same,pest or weed control at 31 g/ha,"[5]; post-emergence, Postemergence",0%
same,pest or weed control at 62 g/ha,"[5]; post-emergence, Postemergence",5%
same,pest or weed control at 125 g/ha,"[5]; post-emergence, Postemergence",5%
same,pest or weed control at 16 g/ha,"[5]; pre-emergence, Preemergence",10%
same,pest or weed control at 31 g/ha,"[5]; pre-emergence, Preemergence",10%
same,pest or weed control at 62 g/ha,"[5]; pre-emergence, Preemergence",25%
same,pest or weed control at 125 g/ha,"[5]; pre-emergence, Preemergence",25%
same,pest or weed control at 16 g/ha,"[6]; post-emergence, Postemergence",5%
same,pest or weed control at 31 g/ha,[6]; [11],5%
same,pest or weed control at 62 g/ha,"[6]; post-emergence, Postemergence",10%
same,pest or weed control at 125 g/ha,"[6]; post-emergence, Postemergence",20%
same,pest or weed control at 16 g/ha,"[6]; pre-emergence, Preemergence",0%
same,pest or weed control at 62 g/ha,"[6]; pre-emergence, Preemergence",35%
same,pest or weed control at 125 g/ha,"[6]; pre-emergence, Preemergence",50%
same,pest or weed control at 16 g/ha,"[7]; post-emergence, Postemergence",85%
same,pest or weed control at 31 g/ha,"[7]; post-emergence, Postemergence",85%
same,pest or weed control at 62 g/ha,"[7]; post-emergence, Postemergence",90%
same,pest or weed control at 125 g/ha,"[7]; post-emergence, Postemergence",90%
same,pest or weed control at 16 g/ha,"[7]; pre-emergence, Preemergence",30%
same,pest or weed control at 31 g/ha,"[7]; pre-emergence, Preemergence",20%
same,pest or weed control at 62 g/ha,"[7]; pre-emergence, Preemergence",100%
same,pest or weed control at 125 g/ha,"[7]; pre-emergence, Preemergence",100%
same,pest or weed control at 16 g/ha,"[8]; post-emergence, Postemergence",60%
same,pest or weed control at 31 g/ha,"[8]; post-emergence, Postemergence",65%
same,pest or weed control at 62 g/ha,"[8]; post-emergence, Postemergence",80%
same,pest or weed control at 125 g/ha,"[8]; post-emergence, Postemergence",80%
same,pest or weed control at 16 g/ha,"[8]; pre-emergence, Preemergence",100%
same,pest or weed control at 31 g/ha,"[8]; pre-emergence, Preemergence",100%
same,pest or weed control at 62 g/ha,"[8]; pre-emergence, Preemergence",100%
same,pest or weed control at 125 g/ha,"[8]; pre-emergence, Preemergence",100%
same,pest or weed control at 16 g/ha,"[9]; post-emergence, Postemergence",30%
same,pest or weed control at 31 g/ha,"[9]; post-emergence, Postemergence",50%
same,pest or weed control at 62 g/ha,"[9]; post-emergence, Postemergence",60%
same,pest or weed control at 125 g/ha,"[9]; post-emergence, Postemergence",65%
same,pest or weed control at 16 g/ha,"[9]; pre-emergence, Preemergence",100%
same,pest or weed control at 31 g/ha,"[9]; pre-emergence, Preemergence",100%
same,pest or weed control at 62 g/ha,"[9]; pre-emergence, Preemergence",100%
same,pest or weed control at 125 g/ha,"[9]; pre-emergence, Preemergence",100%
same,plant injury at 16 g/ha,"[10]; post-emergence, Postemergence",5%
same,plant injury at 31 g/ha,[10]; [11],5%
same,plant injury at 62 g/ha,"[10]; post-emergence, Postemergence",15%
same,plant injury at 125 g/ha,"[10]; post-emergence, Postemergence",35%
same,plant injury at 16 g/ha,"[10]; pre-emergence, Preemergence",15%
same,plant injury at 62 g/ha,"[10]; pre-emergence, Preemergence",25%
same,plant injury at 125 g/ha,"[10]; pre-emergence, Preemergence",30%
same,pest or weed control at 16 g/ha,"kochia (Kochia scoparia); post-emergence, Postemergence",50%
same,pest or weed control at 31 g/ha,"kochia (Kochia scoparia); post-emergence, Postemergence",55%
same,pest or weed control at 62 g/ha,"kochia (Kochia scoparia); post-emergence, Postemergence",70%
same,pest or weed control at 125 g/ha,"kochia (Kochia scoparia); post-emergence, Postemergence",80%
same,pest or weed control at 16 g/ha,"kochia (Kochia scoparia); pre-emergence, Preemergence",10%
same,pest or weed control at 31 g/ha,"kochia (Kochia scoparia); pre-emergence, Preemergence",15%
same,pest or weed control at 62 g/ha,"kochia (Kochia scoparia); pre-emergence, Preemergence",55%
same,pest or weed control at 125 g/ha,"kochia (Kochia scoparia); pre-emergence, Preemergence",100%

# Reference: patent US10131652B2, “Pyrimidinyloxy benzene derivatives as herbicides” (E. I. DU PONT DE NEMOURS AND COMPANY, priority 2014, dated 2018)
